One assay concerns HT22 cells. The experiment in a line: In vitro neuroprotective activity against glutamate-induced cell death (MTS cell viability). The note with it: HT22 cells; for EC50: 24 hrs, MTS, concentration producing 50% protection, read-out: Protection PC50. It is filed as cell-based, mouse.
In the next assay the test system is HO-1. The assay can be described thus: qRT-PCR of antioxidant response gene HO-1. To be noted: HT22, 10 mM glutamate 16 hrs, relative to glutamate only. Type of assay: cell-based, mouse. How it is done:
HT22 cells were seeded onto cell culture treated 6-well plates at 3.0×10^5 cells per well in 2 mL of medium and maintained at 37° C. in 5% CO2 overnight prior to the initiation of experimental treatments. Cells were subsequently treated with 1 mL of medium containing glutamate (monosodium glutamate, Sigma-Aldritch, 1 M stock concentration in media, to achieve a final concentration of 10 mM) plus inhibitors (stock in DMSO) and maintained at 37° C. in 5% CO2. After 16 hrs, the media was collected and the cells harvested by trypsanization. After centrifugation, pelleted cells were washed with cold Hanks' Balanced Salt Solution (HBSS Ca^2+/Mg^2+ Free; Invitrogen; KCl 5.33 mM, KH2PO4 0.441 mM, NaHCO3 4.17 mM, NaCl 137.93 mM, Na2HPO4 0.338 mM, D-Glucose 5.56 mM), qRT-PCR was used to detect HO-1, NQO-1, and PGAM5 mRNAs in the HT22 cells. […] Therefore β2-microglobulin was used as a reference gene (Barrionuevo and Burggren, 1999). HT22 cells were cultured as described for 16 hrs. Total RNAs were extracted using the RNEasy kit (Qiagen), and transcripts of interest were amplified by PCR using the 1-step Syber Green qRT-PCR kit (Quanta) and the following specific primers (Harvard PrimerBank; Integrated DNA Technologies): HO-1, 5′-[…]-3′ (SEQ ID NO:1) and 5′-[…]-3′ (SEQ ID NO:2); PGAM5, 5′-[…]-3′ (SEQ ID NO:3) and 5′-[…]-3′ (SEQ ID NO:4); NQO-1, 5′-[…]-3′ (SEQ ID NO:5) and 5′-[…]-3′ (SEQ ID NO:6); and β2-microglobulin, 5′-[…]-3′ (SEQ ID NO:7) and 5′-[…]-3′ (SEQ ID NO:8). Linearity of the primers was verified before use, and fold changes were calculated as previously described using the Livak method (Barrionuevo and Burggren, 1999).
(In qPCR the cycle at which signal appears reflects the starting amount.)

Where [1] appears, read: Mus musculus, HT-22, 10 mM glutamate.

Read-outs that look alike come from different tables or passages of the source.

`C#CCNC1=CC(=O)c2ccccc2C1=O` [Compound 2h, 2-(prop-2-yn-1-ylamino)naphthalene-1,4-dione]: the EC50 with HT22 cells (setting [1]) is 120 nM.

Consider `O=C1C=C(NCc2ccccc2)C(=O)c2ccccc21` [Compound 2j, 2-(benzylamino)naphthalene-1,4-dione], for which the EC50 in the assay with HT22 cells (setting [1]) was determined as 88 nM. For the same compound, the HO-1 gene expression entry in the assay on HO-1 is given as “significantly decreased HO-1 expression”.

As to `O=C1C=C(NCc2cccc(Cl)c2)C(=O)c2ccccc21` [Compound 2q, 2-((3-chlorobenzyl)amino)naphthalene-1,4-dione], in the assay with HT22 cells (10 mM glutamate), the “fold increase in PC50 potency over VK2” value is reported as “more than 10 fold” and the “fold increase in PC50 potency over compound 2j” value is reported as approximately 3 fold. The EC50 in the assay with HT22 cells (setting [1]) was found to be 31 nM. The HO-1 gene expression entry with HO-1 is on record as “significantly decreased HO-1 expression”.

As for `CC1=CC(=O)c2ccccc2C1=O` [VK3, menadione, reference compound], the EC50 in the assay with HT22 cells (10 mM glutamate) turned out to be 797 nM.

With menaquinones [VK2, reference compound], the EC50 with HT22 cells (10 mM glutamate) amounted to 432 nM. In the assay with HT22 cells (glutamate), the “protection from oxidative cell death” value is listed as “rescued HT22 cells from oxidative cell death”. Also, the HO-1 gene expression entry in the assay with HO-1 is on record as “significantly decreased HO-1 expression”.

These data come from patent publication US10391070B2, “Compositions and methods for treating neurological diseases or injury” (MUSC FOUNDATION FOR RESEARCH DEVELOPMENT, priority 2012, dated 2019).
